Each structure is given as a SMILES string.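 Method: 48-hour compound exposure of cells in 96-well plates, five concentrations, linear interpolation of endpoints. At the TGI there is no net growth.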 Some results are limits rather than exact numbers.

TGI data for 14 molecules are collected here from PubChem BioAssay (NCI).

Among the test systems are SN12C renal; LOX IMVI melanoma; NCI-H522 lung; OVCAR-4 ovarian; 786-0 renal; SNB-19 CNS; A498 renal; MALME-3M melanoma; NCI/ADR-RES ovarian; UACC-257 melanoma.
Holding throughout (experiment): inhibition of tumour cell growth, NCI panel, 48 h

Regarding `CC(=O)c1nc(C#N)c(N)o1`, the TGI in the assay with SN12C renal, in the assay on LOX IMVI melanoma, in the assay on NCI-H522 lung, in the assay with OVCAR-4 ovarian, in the assay with 786-0 renal and in the assay on SNB-19 CNS was over 100 µM throughout. Also, the TGI in the assay on A498 renal, in the assay on MALME-3M melanoma, in the assay on NCI/ADR-RES ovarian and with UACC-257 melanoma was over 100 µM in each case.
With `CN1C(=O)[C@](C)(Cc2ccc(F)cc2)N(C(=O)OC(C)(C)C)[C@@H]1C(C)(C)C`, the TGI with SN12C renal is 32.4 µM; in the assay on LOX IMVI melanoma, 53 µM; in the assay with NCI-H522 lung, 46.9 µM; in the assay on OVCAR-4 ovarian, over 100 µM; with 786-0 renal it was 68.4 µM; in the assay with SNB-19 CNS, over 100 µM. Moreover, the TGI with A498 renal is 70 µM; in the assay with MALME-3M melanoma it was over 100 µM; in the assay with NCI/ADR-RES ovarian, 44.8 µM; with UACC-257 melanoma, 92.3 µM.
As to `Oc1[nH]c2ccccc2c1N=NC(=S)NCc1ccccn1`, the TGI worked out at 14.5 µM in the assay with SN12C renal; 15.3 µM in the assay on LOX IMVI melanoma; 14.7 µM in the assay on NCI-H522 lung; 21 µM with OVCAR-4 ovarian; 13.6 µM with 786-0 renal; 15.2 µM with SNB-19 CNS. In addition, the TGI in the assay on A498 renal is 7.51 µM; in the assay with MALME-3M melanoma it was 17.9 µM; with NCI/ADR-RES ovarian, over 23.3 µM; with UACC-257 melanoma, 13.7 µM.
Turning to `COc1cc(C)c(S(=O)(=O)N(CCCN)OCCCN)c(C)c1C`, the TGI was over 100 µM in the assay with SN12C renal; 84.6 µM with LOX IMVI melanoma; 51.7 µM with NCI-H522 lung; over 100 µM in the assay with OVCAR-4 ovarian; over 100 µM with 786-0 renal; over 100 µM with SNB-19 CNS. Moreover, the TGI is over 100 µM in the assay with A498 renal, 42.8 µM in the assay with MALME-3M melanoma, over 100 µM in the assay with NCI/ADR-RES ovarian and 62.3 µM in the assay with UACC-257 melanoma.
In the case of `CC(=O)OCC12C(OC(C)=O)C[C@@H](C)C3(CC(c4ccoc4)OC3=O)C1CCC(OC(C)=O)C21CO1` (stereo not given in full), the TGI in the assay with SN12C renal, in the assay with LOX IMVI melanoma, in the assay on NCI-H522 lung, in the assay with OVCAR-4 ovarian, in the assay on 786-0 renal and in the assay on SNB-19 CNS was over 100 µM each time. Besides, the TGI with A498 renal, in the assay with MALME-3M melanoma, in the assay with NCI/ADR-RES ovarian and in the assay on UACC-257 melanoma was over 100 µM throughout.
On to `CCOC(=O)CCN1C(=O)c2c(NC(=O)C(=O)O)cccc2S1(=O)=O`, for which the TGI with SN12C renal, in the assay on LOX IMVI melanoma, in the assay with NCI-H522 lung, in the assay with OVCAR-4 ovarian, with 786-0 renal and in the assay on SNB-19 CNS was over 100 µM in each case. Besides, the TGI in the assay on A498 renal, with MALME-3M melanoma, in the assay with NCI/ADR-RES ovarian and in the assay with UACC-257 melanoma was over 100 µM each time.
With `Cc1cnc2cc(Cl)ccc2c1SCC(=O)O`, the TGI with SN12C renal, in the assay with LOX IMVI melanoma, in the assay on NCI-H522 lung, in the assay with OVCAR-4 ovarian, in the assay with 786-0 renal and in the assay on SNB-19 CNS was over 100 µM throughout. In addition, the TGI in the assay with A498 renal, with MALME-3M melanoma, in the assay on NCI/ADR-RES ovarian and in the assay with UACC-257 melanoma was over 100 µM each time.
Regarding `CCOC(=O)C1=C(C)N(c2ccc(Cl)cc2)C2(O)C=CC(=O)C3C(=O)N(c4ccccc4)C(=O)C132` (stereo not given), the TGI in the assay with SN12C renal was 5.28 µM; in the assay on LOX IMVI melanoma it was 3.69 µM; with NCI-H522 lung it was 2.38 µM; with OVCAR-4 ovarian, 3.25 µM; in the assay with 786-0 renal, 3.09 µM; in the assay with SNB-19 CNS, 8.1 µM. Also, the TGI with A498 renal was determined as 3.22 µM; with MALME-3M melanoma, 3.57 µM; in the assay on NCI/ADR-RES ovarian, 6.72 µM; with UACC-257 melanoma it was 6.76 µM.
On to `O=C1CCc2c(sc3ncnc(Nc4cccc(Br)c4)c23)C1`, for which the TGI came out at 12.7 µM in the assay on SN12C renal; 12.9 µM with LOX IMVI melanoma; 6.17 µM with NCI-H522 lung; 8.63 µM in the assay with OVCAR-4 ovarian; 19 µM with 786-0 renal; 19.2 µM in the assay on SNB-19 CNS. Moreover, the TGI is 31.4 µM with A498 renal, 4.85 µM with MALME-3M melanoma, over 26.7 µM in the assay on NCI/ADR-RES ovarian and 11.6 µM in the assay on UACC-257 melanoma.
As for `N#Cc1c(NC(=S)Nc2ccccc2)sc2c1CCCC2`, the TGI in the assay with SN12C renal, with LOX IMVI melanoma, with NCI-H522 lung, in the assay on OVCAR-4 ovarian, with 786-0 renal and in the assay on SNB-19 CNS was over 100 µM in each case. In addition, the TGI in the assay with A498 renal, with MALME-3M melanoma, in the assay on NCI/ADR-RES ovarian and with UACC-257 melanoma was over 100 µM throughout.
For `CCOC(=O)c1sc2[n+](c1C)C(=O)/C(=C/c1ccccc1Cl)S2`, the TGI in the assay with SN12C renal is over 100 µM; in the assay with LOX IMVI melanoma it was 19.1 µM; with NCI-H522 lung it was 7.65 µM; in the assay with OVCAR-4 ovarian it was over 100 µM; in the assay on 786-0 renal, 26.1 µM; in the assay with SNB-19 CNS, over 42.7 µM. The TGI in the assay with A498 renal was over 56.8 µM; with MALME-3M melanoma it was 31.5 µM; in the assay on NCI/ADR-RES ovarian, 16.1 µM; with UACC-257 melanoma, over 70.2 µM.
Turning to `Cc1nc2ccccc2nc1N1CCCC1`, the TGI with SN12C renal, with LOX IMVI melanoma, in the assay on NCI-H522 lung, in the assay on OVCAR-4 ovarian, in the assay with 786-0 renal and with SNB-19 CNS was over 100 µM in each case. Also, the TGI in the assay with A498 renal, with MALME-3M melanoma, in the assay with NCI/ADR-RES ovarian and with UACC-257 melanoma was over 100 µM in each case.
Turning to `CC(=O)N1C(=O)/C(=C\C(=O)c2ccc(Cl)cc2)c2ccccc21`, the TGI in the assay with SN12C renal was 32.1 µM; in the assay on LOX IMVI melanoma it was 5.9 µM; in the assay on NCI-H522 lung it was 26.9 µM; in the assay with OVCAR-4 ovarian it was 35.9 µM; in the assay with 786-0 renal, 15.9 µM; in the assay with SNB-19 CNS, over 57.2 µM. The TGI was 69.3 µM in the assay with A498 renal, 32.6 µM in the assay with MALME-3M melanoma, 53.5 µM with NCI/ADR-RES ovarian and 30.7 µM with UACC-257 melanoma.
As for `Cc1cccc2c1C(=O)/C(=C/c1ccccc1C(=O)O)C2`, the TGI with SN12C renal, with LOX IMVI melanoma, with NCI-H522 lung, in the assay with OVCAR-4 ovarian, in the assay with 786-0 renal and in the assay with SNB-19 CNS was over 100 µM in each case. Also, the TGI in the assay on A498 renal, with MALME-3M melanoma, in the assay with NCI/ADR-RES ovarian and with UACC-257 melanoma was over 100 µM each time.
